Test results reported in paper PMC4503722, “Novel Phenotypic Outcomes Identified for a Public Collection of Approved Drugs from a Publicly Accessible Panel of Assays” (PLoS ONE, 2015).
Like-named read-outs stand apart in the source and are kept apart here.

What was measured:
Assay in all cases: cells
DLD-1 = assay type: cell-based
[1] = system: nuclear β-catenin in C2C12 cells; assay type: cell-based; details: read-out: Wnt Pathway
HT-29 = assay type: cell-based; details: HT-29, read-out: Basal_Viability ATP HT-29
INS-1E cells = assay type: cell-based, rat; details: read-out: Insulin Secretion
[2] = system: endothelial tube formation in co-cultures of ECFCs and ADSCs treated with VEGF; assay type: cell-based, human; details: read-out: Anti-Angiogenesis
HCT116 = assay type: cell-based; details: read-out: Basal_Viability ATP HCT116
HeLa cells = assay type: cell-based; details: HeLa, HeLa, read-out: CellCycle G2/M
NCI-H716 cells = assay type: cell-based, Human; details: read-out: GLP 1 Secretion
Colo320 = assay type: cell-based; details: read-out: Basal_Viability ATP Colo 320
[3] = system: HCT116 cells treated with a GSK3β inhibitor; assay type: cell-based; details: read-out: GSK3b inh pretreated_Viability ATP HCT116
SNU-C1 = assay type: cell-based
SW480 = assay type: cell-based
RKO = assay type: cell-based; details: RKO, read-out: Basal_Viability ATP RKO
[4] = Homo sapiens, DLD-1, basal, DLD-1, read-out: Basal_Viability ATP DLD-1
[5] = Homo sapiens, HCT-116, basal, HCT116
[6] = Homo sapiens, S2 Table, 20 = no response at highest concentration
[7] = Homo sapiens, HCT-116, HCT116 pretreated with GSK3b inhibitor
[8] = Homo sapiens, SNU-C1, basal, SNU-C1, read-out: Basal_Viability ATP SNU-C1
[9] = Homo sapiens, SW480, basal, SW480, read-out: Basal_Viability ATP SW480
[10] = S2 Table, module primary assay, 20 / 20.1 codes per legend

Molecule CCCCC(CC)CNC(=N)NC(=N)NCCCCCCNC(=N)NC(=N)NCC(CC)CCCC (centres unmarked) [alexidine] has an IC50 (DLD-1; [4]) of 19.7 nM, an EC50 ([1]; Mus musculus, C2C12, S2 Table, module primary assay, 20 / 20.1 codes per legend) of over 10000 nM and an IC50 (HT-29; Homo sapiens, basal) of 30.2 nM. It also gave an EC50 (INS-1E cells; Rattus norvegicus, INS-1E) of over 10000 nM, an IC50 ([2]; Homo sapiens) of 408 nM and an IC50 (HCT116; [5]) of 710 nM. It also gave an EC50 (HeLa cells; [6]) of over 10000 nM, an EC50 (NCI-H716 cells; Homo sapiens, NCI-H716) of over 10000 nM and an IC50 (Colo320; Homo sapiens, basal, Colo 320) of 4.1 nM. For the same molecule, the IC50 [3, 7] was 396 nM, the IC50 (SNU-C1; [8]) was 94.1 nM and the IC50 (SW480; [9]) was 333 nM. The IC50 (RKO; Homo sapiens, basal) was 223 nM.

Molecule O=C1C2CC=CCC2C(=O)N1SC(Cl)(Cl)Cl (centres unmarked) [captan] has an IC50 (DLD-1; [4]) of 348 nM, an EC50 ([1]; Mus musculus, C2C12) of 511 nM and an IC50 (HT-29; Homo sapiens, basal) of 500 nM. For the same molecule, the EC50 (INS-1E cells; Rattus norvegicus, INS-1E) was over 10000 nM, the IC50 ([2]; Homo sapiens) was over 10000 nM and the IC50 (HCT116; [5]) was 1760 nM. For the same molecule, the EC50 (HeLa cells; [6]) was over 10000 nM, the EC50 (NCI-H716 cells; Homo sapiens, NCI-H716) was over 10000 nM and the IC50 (Colo320; Homo sapiens, basal, Colo 320) was 306 nM. The IC50 [3, 7] was 2210 nM, the IC50 (SNU-C1; [8]) was 903 nM and the IC50 (SW480; [9]) was 78.8 nM. It also gave an IC50 (RKO; Homo sapiens, basal) of 402 nM.

For CCCCCCCCCCCC[N+](C)(C)Cc1ccccc1 [dimethyldodecylbenzylammonium], the IC50 (DLD-1; basal, DLD-1, read-out: Basal_Viability ATP DLD-1) was 738 nM, the EC50 [1, 10] was over 10000 nM and the IC50 (HT-29; basal) was 465 nM. It also gave an EC50 (INS-1E cells; [10]) of over 10000 nM, an IC50 [2] of over 10000 nM and an IC50 (HCT116; basal, HCT116) of 1960 nM. For the same molecule, the EC50 (HeLa cells; S2 Table, 20 = no response at highest concentration) was over 10000 nM, the EC50 (NCI-H716 cells; [10]) was over 10000 nM and the IC50 (Colo320; basal, Colo 320) was 8990 nM. It also gave an IC50 ([3]; HCT116 pretreated with GSK3b inhibitor) of over 20000 nM, an IC50 (SNU-C1; basal, SNU-C1, read-out: Basal_Viability ATP SNU-C1) of 20 nM and an IC50 (SW480; basal, SW480, read-out: Basal_Viability ATP SW480) of 7950 nM. It also gave an IC50 (RKO; basal) of 3070 nM.

Molecule CC(=O)O[C@@]12CO[C@@H]1C[C@H](O)[C@@]1(C)C(=O)[C@H](O)C3=C(C)[C@@H](OC(=O)[C@H](O)[C@@H](NC(=O)OC(C)(C)C)c4ccccc4)C[C@@](O)([C@@H](OC(=O)c4ccccc4)[C@H]21)C3(C)C [docetaxel] has an IC50 (DLD-1; Homo sapiens, DLD-1, basal, read-out: Basal_Viability ATP DLD-1) of 8200 nM, an EC50 ([1]; Mus musculus, C2C12, IC50 / EC50, C2C12 beta-catenin translocation) of 65.2 nM and an IC50 (HT-29; Homo sapiens) of 1 nM. For the same molecule, the EC50 (INS-1E cells; Rattus norvegicus, IC50 / EC50, INS-1E) was over 10000 nM, the IC50 ([2]; Homo sapiens, IC50 / EC50, endothelial tube area, ADSC/ECFC co-culture) was 1 nM and the IC50 (HCT116; Homo sapiens, HCT-116, basal) was 1 nM. The EC50 (HeLa cells; Homo sapiens, IC50 / EC50) was 3.35 nM, the EC50 (NCI-H716 cells; Homo sapiens, IC50 / EC50, NCI-H716) was over 10000 nM and the IC50 (Colo320; Homo sapiens, COLO 320) was 1 nM. It also gave an IC50 ([3]; Homo sapiens, HCT-116, GSK3b inhibitor pretreated) of 1 nM, an IC50 (SNU-C1; Homo sapiens, SNU-C1, basal, read-out: Basal_Viability ATP SNU-C1) of over 20000 nM and an IC50 (SW480; Homo sapiens, SW480, basal, read-out: Basal_Viability ATP SW480) of 1 nM. For the same molecule, the IC50 (RKO; Homo sapiens) was 1 nM.

Molecule COc1cccc2c1C(=O)c1c(O)c3c(c(O)c1C2=O)C[C@@](O)(C(=O)CO)C[C@@H]3O[C@H]1C[C@H](N)[C@H](O[C@@H]2CCCCO2)[C@H](C)O1 [pirarubicin] has an IC50 (DLD-1; Homo sapiens, DLD-1, read-out: Basal_Viability ATP DLD-1) of 8950 nM, an EC50 ([1]; Mus musculus, C2C12) of 3950 nM and an IC50 (HT-29; Homo sapiens, basal) of over 20000 nM. It also gave an EC50 (INS-1E cells; Rattus norvegicus, INS-1E) of over 10000 nM, an IC50 ([2]; Homo sapiens) of 6.3 nM and an IC50 (HCT116; [5]) of 911 nM. For the same molecule, the EC50 (HeLa cells; [6]) was 80.6 nM, the EC50 (NCI-H716 cells; Homo sapiens, NCI-H716) was over 10000 nM and the IC50 (Colo320; Homo sapiens, basal, Colo 320) was 2010 nM. It also gave an IC50 [3, 7] of 1280 nM, an IC50 (SNU-C1; Homo sapiens, SNU-C1, read-out: Basal_Viability ATP SNU-C1) of 9260 nM and an IC50 (SW480; Homo sapiens, SW480, read-out: Basal_Viability ATP SW480) of 7820 nM. The IC50 (RKO; Homo sapiens, basal) was 1010 nM.
